Test results taken from ChEMBL document CHEMBL1201862, “PubChem BioAssay data set” (2004).
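Values below derive from 48-hour exposures of cells grown in 96-well plates, with endpoints linearly interpolated between the two concentrations bracketing the appropriate inhibition level. GI50 is the concentration that inhibits growth by half.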 Calls of active or inactive are those of the source. Cut-off read from the data, not from the text of the source: active = GI50 up to about 1.1 µM and inactive = higher.

Assays:
Experiment in all cases: NCI anticancer screen, dose series, 48 h
[1] = tested on: M14
[2] = tested on: SNB-75
[3] = tested on: M19-MEL
[4] = tested on: HCT-15
[5] = tested on: XF498
[6] = tested on: HOP-62
[7] = tested on: KM12
[8] = tested on: Malme-3M
[9] = tested on: MOLT-4
[10] = tested on: SK-MEL-2
[11] = tested on: DMS-114
[12] = tested on: K562
[13] = tested on: HCT-116
[14] = tested on: COLO 205
[15] = tested on: RPMI-8226
[16] = tested on: KM-20L2
[17] = tested on: NCI-H23
[18] = tested on: CCRF-CEM
[19] = tested on: SK-MEL-28
[20] = tested on: HL-60
[21] = tested on: NCI-H226
[22] = tested on: UO-31
[23] = tested on: A549
[24] = tested on: A498
[25] = tested on: SW-620
[26] = tested on: 786-0
[27] = tested on: SNB-19
[28] = tested on: HCC 2998
[29] = tested on: IGROV-1
[30] = tested on: ACHN
[31] = tested on: SR
[32] = tested on: NCI-H460
[33] = tested on: UACC-62
[34] = tested on: SN12C
[35] = tested on: DMS-273
[36] = tested on: SK-OV-3
[37] = tested on: DLD-1
[38] = tested on: LXFL 529
[39] = tested on: RXF 393
[40] = tested on: SF-268
[41] = tested on: CAKI-1
[42] = tested on: OVCAR-8
[43] = tested on: OVCAR-4
[44] = tested on: LOX IMVI
[45] = tested on: SF-539
[46] = tested on: SK-MEL-5
[47] = tested on: HOP-92
[48] = tested on: OVCAR-3
[49] = tested on: U-251
[50] = tested on: RXF 631
[51] = tested on: HT-29
[52] = tested on: SNB-78
[53] = tested on: UACC-257
[54] = tested on: TK-10
[55] = tested on: SF-295
[56] = tested on: NCI-H522
[57] = tested on: EKVX
[58] = tested on: OVCAR-5

C#CCNC(=O)NC(CCCNC(=O)OCc1ccccc1)C(=O)OCc1ccccc1 (stereo not drawn)
GI50 [1]: 24.5 µM (inactive)
GI50 [2]: 82.4 µM (inactive)
GI50 [3]: 77.1 µM (inactive)
GI50 [4]: > 100 µM
GI50 [5]: 12.9 µM (inactive)
GI50 [6]: > 100 µM (inactive)
GI50 [7]: > 100 µM (inactive)
GI50 [8]: 51.9 µM (inactive)
GI50 [9]: > 100 µM (inactive)
GI50 [10]: 33.7 µM (inactive)
GI50 [11]: > 100 µM (inactive)
GI50 [12]: > 100 µM (inactive)
GI50 [13]: > 100 µM (inactive)
GI50 [14]: 35.7 µM (inactive)
GI50 [15]: > 100 µM (inactive)
GI50 [16]: > 100 µM (inactive)
GI50 [17]: > 100 µM (inactive)
GI50 [18]: > 100 µM (inactive)
GI50 [19]: > 100 µM (inactive)
GI50 [20]: 25.4 µM (inactive)
GI50 [21]: > 100 µM (inactive)
GI50 [22]: > 100 µM (inactive)
GI50 [23]: > 100 µM (inactive)
GI50 [24]: > 100 µM (inactive)
GI50 [25]: > 100 µM (inactive)
GI50 [26]: > 100 µM (inactive)
GI50 [27]: > 100 µM (inactive)
GI50 [28]: > 100 µM (inactive)
GI50 [29]: > 100 µM (inactive)
GI50 [30]: > 100 µM (inactive)
GI50 [31]: > 100 µM (inactive)
GI50 [32]: 46.2 µM (inactive)
GI50 [33]: 34.8 µM (inactive)
GI50 [34]: > 100 µM (inactive)
GI50 [35]: > 100 µM (inactive)
GI50 [36]: > 100 µM (inactive)
GI50 [37]: > 100 µM (inactive)
GI50 [38]: > 100 µM (inactive)
GI50 [39]: 30.1 µM (inactive)
GI50 [40]: > 100 µM (inactive)
GI50 [41]: 33.8 µM (inactive)
GI50 [42]: > 100 µM (inactive)
GI50 [43]: > 100 µM (inactive)
GI50 [44]: 95.1 µM (inactive)
GI50 [45]: 50.2 µM (inactive)
GI50 [46]: 84.1 µM (inactive)
GI50 [47]: 19.3 µM (inactive)
GI50 [48]: > 100 µM (inactive)
GI50 [49]: > 100 µM (inactive)
GI50 [50]: > 100 µM (inactive)
GI50 [51]: > 100 µM (inactive)
GI50 [52]: > 100 µM (inactive)
GI50 [53]: 27.9 µM (inactive)
GI50 [54]: > 100 µM (inactive)
GI50 [55]: > 100 µM (inactive)
GI50 [56]: 25.9 µM (inactive)
GI50 [57]: > 100 µM (inactive)
GI50 [58]: > 100 µM (inactive)

CC1CCC2(C)C(CC=C(C=O)C2(O)C=O)C12CO2 (stereo not drawn)
GI50 [1]: 1.36 µM (inactive)
GI50 [3]: 1.73 µM (inactive)
GI50 [4]: 2.14 µM
GI50 [5]: 2.17 µM (inactive)
GI50 [6]: 20.9 µM (inactive)
GI50 [7]: 3.21 µM (inactive)
GI50 [8]: 2.64 µM (inactive)
GI50 [9]: 1.87 µM (inactive)
GI50 [10]: 2.52 µM (inactive)
GI50 [11]: 1.57 µM (inactive)
GI50 [12]: 1.7 µM (inactive)
GI50 [13]: 1.49 µM (inactive)
GI50 [14]: 1.33 µM (inactive)
GI50 [15]: 2.15 µM (inactive)
GI50 [16]: 2.49 µM (inactive)
GI50 [17]: 2.25 µM (inactive)
GI50 [18]: 1.26 µM (inactive)
GI50 [19]: 1.79 µM (inactive)
GI50 [20]: 0.877 µM (active)
GI50 [21]: 0.665 µM (active)
GI50 [22]: 1.81 µM (inactive)
GI50 [23]: 10.4 µM (inactive)
GI50 [24]: 6.7 µM (inactive)
GI50 [25]: 2.36 µM (inactive)
GI50 [26]: 2.4 µM (inactive)
GI50 [27]: 9.66 µM (inactive)
GI50 [28]: 2.29 µM (inactive)
GI50 [29]: 2.32 µM (inactive)
GI50 [30]: 1.76 µM (inactive)
GI50 [31]: 1.71 µM (inactive)
GI50 [32]: 2.57 µM (inactive)
GI50 [33]: 1.64 µM (inactive)
GI50 [34]: 2.6 µM (inactive)
GI50 [35]: 1.79 µM (inactive)
GI50 [36]: 3.27 µM (inactive)
GI50 [38]: 1.54 µM (inactive)
GI50 [39]: 1.48 µM (inactive)
GI50 [40]: 4.25 µM (inactive)
GI50 [41]: 2.96 µM (inactive)
GI50 [42]: 2.22 µM (inactive)
GI50 [43]: 2.23 µM (inactive)
GI50 [44]: 2.69 µM (inactive)
GI50 [45]: 2.19 µM (inactive)
GI50 [47]: 2.01 µM (inactive)
GI50 [48]: 0.481 µM (active)
GI50 [49]: 2.81 µM (inactive)
GI50 [50]: 1.99 µM (inactive)
GI50 [51]: 2.55 µM (inactive)
GI50 [52]: 2.07 µM (inactive)
GI50 [53]: 1.52 µM (inactive)
GI50 [54]: 1.97 µM (inactive)
GI50 [55]: 3.31 µM (inactive)
GI50 [56]: 2.31 µM (inactive)
GI50 [57]: 6.98 µM (inactive)
GI50 [58]: 2.73 µM (inactive)
